In assay [1] the target is T1, progesterone receptor (PR) (Homo sapiens, UniProt P06401).
T1 construct: made in house
T1 sequence (P06401 1-933): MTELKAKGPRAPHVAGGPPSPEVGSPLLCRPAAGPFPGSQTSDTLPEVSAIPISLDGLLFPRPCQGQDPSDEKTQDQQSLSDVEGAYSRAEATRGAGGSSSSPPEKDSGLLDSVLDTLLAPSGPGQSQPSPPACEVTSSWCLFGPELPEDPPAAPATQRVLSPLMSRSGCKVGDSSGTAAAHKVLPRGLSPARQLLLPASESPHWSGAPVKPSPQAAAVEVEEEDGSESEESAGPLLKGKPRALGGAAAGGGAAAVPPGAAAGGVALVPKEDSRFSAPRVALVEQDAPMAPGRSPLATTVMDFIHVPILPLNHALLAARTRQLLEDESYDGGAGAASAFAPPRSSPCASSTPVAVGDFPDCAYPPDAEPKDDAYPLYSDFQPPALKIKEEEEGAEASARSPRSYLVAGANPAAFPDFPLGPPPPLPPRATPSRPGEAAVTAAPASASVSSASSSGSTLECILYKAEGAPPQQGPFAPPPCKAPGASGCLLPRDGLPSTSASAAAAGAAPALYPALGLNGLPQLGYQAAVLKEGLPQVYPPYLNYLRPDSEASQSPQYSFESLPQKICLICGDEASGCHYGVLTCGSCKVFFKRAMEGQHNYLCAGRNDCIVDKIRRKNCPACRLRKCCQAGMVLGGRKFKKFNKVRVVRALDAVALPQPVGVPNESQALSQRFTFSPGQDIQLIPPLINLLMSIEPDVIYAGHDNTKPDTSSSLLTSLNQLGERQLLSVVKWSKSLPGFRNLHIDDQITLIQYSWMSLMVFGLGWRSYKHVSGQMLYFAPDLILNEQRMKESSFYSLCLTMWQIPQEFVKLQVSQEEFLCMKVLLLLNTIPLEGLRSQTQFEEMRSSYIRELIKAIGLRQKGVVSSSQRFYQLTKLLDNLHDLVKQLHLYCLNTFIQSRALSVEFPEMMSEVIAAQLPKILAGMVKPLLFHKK
As to the kind of experiment: binding to the progesterone receptor (recombinantly prepared receptor). From the text:
(§1) The binding of the substances to the glucocorticoid receptor (GR) and further steroid hormone receptors (mineral corticoid receptor (MR), progesterone receptor (PR) and androgen receptor (AR)) is examined with the aid of recombinantly prepared receptors. Cytosol preparations of Sf9 cells which had been infected with recombinant baculoviruses which code for the GR are employed for the binding studies. Compared with the reference substance [^3H]-dexamethasone, the substances show a high affinity for the GR.

Assay [2] addresses T2, glucocorticoid receptor (GR) (Homo sapiens, UniProt P04150).
T2 construct: made in house; host or cells: Sf9 cells infected with recombinant baculovirus (cytosol preparation)
T2 sequence (P04150 1-777): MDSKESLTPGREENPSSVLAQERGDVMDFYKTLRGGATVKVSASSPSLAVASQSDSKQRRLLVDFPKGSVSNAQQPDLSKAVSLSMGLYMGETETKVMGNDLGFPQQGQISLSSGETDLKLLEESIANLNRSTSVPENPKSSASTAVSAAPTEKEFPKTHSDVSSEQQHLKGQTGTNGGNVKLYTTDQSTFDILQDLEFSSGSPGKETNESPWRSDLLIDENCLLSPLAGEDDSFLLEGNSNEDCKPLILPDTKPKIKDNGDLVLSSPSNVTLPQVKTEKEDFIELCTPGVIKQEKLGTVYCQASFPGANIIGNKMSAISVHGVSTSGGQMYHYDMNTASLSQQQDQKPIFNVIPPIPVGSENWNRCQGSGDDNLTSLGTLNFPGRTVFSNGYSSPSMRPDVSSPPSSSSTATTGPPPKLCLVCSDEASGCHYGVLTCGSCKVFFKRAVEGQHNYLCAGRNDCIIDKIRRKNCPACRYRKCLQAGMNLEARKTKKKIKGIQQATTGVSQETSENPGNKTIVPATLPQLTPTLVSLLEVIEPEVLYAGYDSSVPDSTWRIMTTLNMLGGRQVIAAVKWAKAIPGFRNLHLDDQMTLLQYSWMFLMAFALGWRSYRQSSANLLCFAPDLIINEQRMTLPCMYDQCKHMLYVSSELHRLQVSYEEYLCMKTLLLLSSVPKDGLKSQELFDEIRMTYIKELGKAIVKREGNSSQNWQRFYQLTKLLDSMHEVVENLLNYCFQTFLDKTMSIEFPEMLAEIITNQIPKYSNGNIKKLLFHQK
As to the kind of experiment: binding to the glucocorticoid receptor (recombinant receptor, Sf9 cytosol). As to conditions: cytosol of Sf9 cells, reference [3H]-dexamethasone.
Source text: as §1

Assay [3] deals with IL-8 secretion in the human THP-1 monocyte cell line. As to the kind of experiment: inhibition of LPS-induced IL-8 secretion in THP-1 cells (ELISA). The format is cell-based. The procedure: The compounds of the invention of the general formula (I) inhibit the secretion, induced by lipopolysaccharide (LPS), of the cytokine IL-8 in the human THP-1 monocyte cell line. The concentration of the cytokines was determined in the supernatant using a commercially available ELISA kit.
On the technique in general: ELISA stands for enzyme-linked immunosorbent assay.

The IC50 is the concentration that inhibits the measured activity by half.

Where only a bound is given, the exact number is not on record here.

As to `CC1(C)C[C@@](O)(C(F)(F)F)[C@H](NC(=O)c2ccc3occc3c2)c2ccc(F)c(O)c21` (relative stereo) [Example 3L, N-(cis-6-fluoro-2,5-dihydroxy-4,4-dimethyl-2-trifluoro-methyl-1,2,3,4-tetrahydronaphthalen-1-yl)benzofuran-5-carboxamide], the IC50 in assay [1] is greater than 1000 nM; in assay [2] it was 36 nM.
Take `COc1c(F)ccc2c1C(C)(C)C[C@@](O)(C(F)(F)F)[C@@H]2NC(=O)Nc1ccc2ccccc2c1` [Example 3E]: the half-maximal inhibitory concentration (IC50) in assay [3] (LPS, ELISA of supernatant, read-out: IC50(ILB) inhibition of LPS-induced IL-8 secretion) worked out at 1000 nM. For the same compound, the “efficiency with regard to [3H]-dexamethasone as standard” value in assay [3] (LPS-induced IL-8 secretion) is given as 11%.
